Consider three compounds from US12275731B2, “Azaindole inhibitors of wild-type and mutant forms of LRRK2” (DANA-FARBER CANCER INSTITUTE, INC., priority 2018, dated 2025).

Test in all cases: KinomeScan profiling
Holding throughout (format): binding

Experiment [1] addresses T1, FLT3(D835Y) (Homo sapiens, UniProt P36888, D835Y).
T1 sequence (P36888 27-993 D835Y): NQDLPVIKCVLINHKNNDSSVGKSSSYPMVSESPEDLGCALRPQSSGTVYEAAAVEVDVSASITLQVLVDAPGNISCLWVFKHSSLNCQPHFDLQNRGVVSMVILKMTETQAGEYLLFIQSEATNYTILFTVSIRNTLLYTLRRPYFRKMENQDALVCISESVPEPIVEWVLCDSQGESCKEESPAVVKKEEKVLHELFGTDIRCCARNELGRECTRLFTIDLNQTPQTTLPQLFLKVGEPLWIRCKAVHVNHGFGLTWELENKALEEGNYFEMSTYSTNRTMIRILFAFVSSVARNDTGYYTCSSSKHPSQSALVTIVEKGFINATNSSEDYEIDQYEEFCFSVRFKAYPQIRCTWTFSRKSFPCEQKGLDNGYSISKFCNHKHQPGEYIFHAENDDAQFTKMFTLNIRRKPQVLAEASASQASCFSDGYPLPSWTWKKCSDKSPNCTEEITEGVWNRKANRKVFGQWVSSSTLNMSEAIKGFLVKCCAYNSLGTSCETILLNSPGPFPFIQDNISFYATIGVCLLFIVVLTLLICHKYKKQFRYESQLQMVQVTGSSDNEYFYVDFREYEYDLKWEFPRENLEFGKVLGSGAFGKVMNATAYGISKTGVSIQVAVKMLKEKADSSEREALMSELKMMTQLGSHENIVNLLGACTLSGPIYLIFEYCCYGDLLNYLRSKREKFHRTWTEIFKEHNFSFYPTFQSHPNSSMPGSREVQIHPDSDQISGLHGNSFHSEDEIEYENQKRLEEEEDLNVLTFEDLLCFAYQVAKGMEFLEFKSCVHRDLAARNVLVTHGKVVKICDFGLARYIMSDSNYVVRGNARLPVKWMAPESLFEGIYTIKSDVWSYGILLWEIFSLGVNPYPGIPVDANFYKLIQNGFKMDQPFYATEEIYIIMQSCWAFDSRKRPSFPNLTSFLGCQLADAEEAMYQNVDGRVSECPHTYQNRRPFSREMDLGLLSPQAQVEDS
The following applies: read-out: % control. A digest of the protocol:
(§1)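 Percent-of-control values derive from RLU, calculated as (test − positive)/(negative − positive) × 100, where DMSO defines 100% and a positive control compound defines 0%. Each compound was tested at 1 μM in the 468-kinase panel; sub-35% readings indicate activity.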

In experiment [2] the target is T2, DCAMKL1 (Homo sapiens, UniProt O15075).
T2 sequence (O15075 1-740): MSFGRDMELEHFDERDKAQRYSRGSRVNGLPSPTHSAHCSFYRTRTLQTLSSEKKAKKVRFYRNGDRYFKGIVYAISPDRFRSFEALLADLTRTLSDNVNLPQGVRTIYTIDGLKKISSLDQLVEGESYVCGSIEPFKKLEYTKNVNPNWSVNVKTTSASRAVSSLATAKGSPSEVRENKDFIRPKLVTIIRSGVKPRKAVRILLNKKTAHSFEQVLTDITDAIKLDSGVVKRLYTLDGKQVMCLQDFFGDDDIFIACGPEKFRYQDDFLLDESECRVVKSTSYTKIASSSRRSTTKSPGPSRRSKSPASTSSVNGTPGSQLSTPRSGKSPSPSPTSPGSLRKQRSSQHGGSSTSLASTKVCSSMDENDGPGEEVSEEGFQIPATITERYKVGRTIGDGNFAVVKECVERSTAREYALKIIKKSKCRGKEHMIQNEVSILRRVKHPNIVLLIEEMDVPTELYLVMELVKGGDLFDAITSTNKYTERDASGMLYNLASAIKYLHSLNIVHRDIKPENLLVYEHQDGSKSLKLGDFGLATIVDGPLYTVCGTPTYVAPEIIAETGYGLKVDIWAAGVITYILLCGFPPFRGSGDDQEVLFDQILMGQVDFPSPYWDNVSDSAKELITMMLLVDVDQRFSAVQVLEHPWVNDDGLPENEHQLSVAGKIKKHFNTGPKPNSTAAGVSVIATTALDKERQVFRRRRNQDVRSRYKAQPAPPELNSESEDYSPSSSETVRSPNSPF
The following applies: DCAMKL1, 1 μM; read-out: % control. In outline:
as §1

The target in experiment [3] is FER (Homo sapiens, UniProt P16591). The following applies: read-out: % control. A digest of the protocol: as §1
Chain of FER (P16591 whole entry): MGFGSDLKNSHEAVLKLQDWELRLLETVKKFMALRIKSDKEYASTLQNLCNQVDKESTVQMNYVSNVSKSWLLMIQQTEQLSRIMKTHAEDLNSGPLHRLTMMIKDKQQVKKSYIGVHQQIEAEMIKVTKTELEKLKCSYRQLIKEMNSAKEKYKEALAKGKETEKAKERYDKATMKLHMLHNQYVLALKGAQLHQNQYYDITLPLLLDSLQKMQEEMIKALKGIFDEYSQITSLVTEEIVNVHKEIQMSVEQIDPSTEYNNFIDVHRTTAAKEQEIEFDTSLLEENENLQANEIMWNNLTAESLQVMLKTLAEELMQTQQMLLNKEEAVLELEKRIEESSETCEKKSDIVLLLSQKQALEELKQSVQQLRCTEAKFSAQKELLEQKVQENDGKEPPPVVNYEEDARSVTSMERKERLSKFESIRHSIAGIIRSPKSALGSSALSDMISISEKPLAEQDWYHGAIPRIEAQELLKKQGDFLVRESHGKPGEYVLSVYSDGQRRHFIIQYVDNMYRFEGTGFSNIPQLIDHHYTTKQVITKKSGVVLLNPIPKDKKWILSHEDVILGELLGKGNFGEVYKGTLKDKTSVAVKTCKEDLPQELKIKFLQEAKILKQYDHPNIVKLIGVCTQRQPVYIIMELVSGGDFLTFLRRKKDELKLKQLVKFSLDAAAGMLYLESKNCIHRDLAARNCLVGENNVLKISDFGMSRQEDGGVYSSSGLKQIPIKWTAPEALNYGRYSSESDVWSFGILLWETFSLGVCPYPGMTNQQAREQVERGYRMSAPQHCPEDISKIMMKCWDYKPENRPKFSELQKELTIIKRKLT
Experiment [4] has as its target T3, IKK-beta (Homo sapiens, UniProt O14920).
T3 construct: purchased KinomeScan®
T3 sequence (O14920 1-756): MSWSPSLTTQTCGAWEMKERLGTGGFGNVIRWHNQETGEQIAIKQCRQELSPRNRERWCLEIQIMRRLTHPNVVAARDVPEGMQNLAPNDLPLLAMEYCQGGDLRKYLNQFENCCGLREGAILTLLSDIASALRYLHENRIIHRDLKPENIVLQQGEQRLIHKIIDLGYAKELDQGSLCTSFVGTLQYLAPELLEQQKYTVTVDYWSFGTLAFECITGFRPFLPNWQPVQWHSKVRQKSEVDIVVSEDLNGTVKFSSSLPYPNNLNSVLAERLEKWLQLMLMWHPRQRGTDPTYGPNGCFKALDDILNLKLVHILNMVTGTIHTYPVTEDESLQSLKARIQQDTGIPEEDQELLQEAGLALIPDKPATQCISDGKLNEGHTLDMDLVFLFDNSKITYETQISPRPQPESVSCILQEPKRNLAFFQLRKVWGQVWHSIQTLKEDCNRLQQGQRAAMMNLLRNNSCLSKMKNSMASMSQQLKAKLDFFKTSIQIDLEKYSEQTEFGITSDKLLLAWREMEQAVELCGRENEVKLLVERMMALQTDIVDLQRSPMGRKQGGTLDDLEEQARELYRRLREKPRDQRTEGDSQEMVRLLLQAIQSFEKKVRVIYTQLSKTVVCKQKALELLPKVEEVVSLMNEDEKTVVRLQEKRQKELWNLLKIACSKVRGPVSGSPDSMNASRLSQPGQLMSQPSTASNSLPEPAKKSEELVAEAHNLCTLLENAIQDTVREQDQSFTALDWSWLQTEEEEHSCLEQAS
The following applies: read-out: % control. A digest of the protocol:
as §1

Turning to `CNc1c(-c2ccc(C(=O)N3CCC(N4CCOCC4)CC3)cc2)cnc2[nH]cc(Cl)c12` [Compound 96, (4-(3-chloro-4-(methylamino)-1H-pyrrolo[2,3-b]pyridin-5-yl)phenyl)(4-morpholinopiperidin-1-yl)methanone], the remaining binding at 1 µM in experiment [1] stood at 11%; in experiment [2], 77%; in experiment [3] it was 100%; in experiment [4], 32%.

For the compound `O=C(c1ccc(-c2cnc3[nH]cc(Cl)c3c2NC2CCCC2)cc1)N1CCC(N2CCOCC2)CC1` [Compound 101, (4-(3-chloro-4-(cyclopentylamino)-1H-pyrrolo[2,3-b]pyridin-5-yl)phenyl)(4-morpholinopiperidin-1-yl)methanone], the remaining binding at 1 µM in experiment [1] came to 33%; in experiment [2], 90%; in experiment [3] it was 100%; in experiment [4], 93%.

As to `CNc1c(-c2cnn([C@H]3CCN(C(C)=O)C[C@@H]3F)c2)cnc2[nH]cc(Cl)c12` [Compound 77, 1-((3S,4S)-4-(4-(3-chloro-4-(methylamino)-1H-pyrrolo[2,3-b]pyridin-5-yl)-1H-pyrazol-1-yl)-3-fluoropiperidin-1-yl)ethan-1-one], the remaining binding at 1 µM in experiment [1] was found to be 9.7%; in experiment [2], 79%; in experiment [3], 100%; in experiment [4], 28%.
